Assay results as given in patent US11964953B2, “Substituted aminothiazoles as DGKzeta inhibitors for immune activation” (Bayer Aktiengesellschaft, priority 2020, dated 2024).

Target: human DGKζ (Homo sapiens (Human), UniProt Q13574)
Experiment: Human DGKζ kinase activity inhibition assay (ADP-Glo)
Assay type: biochemical
Conditions: in vitro human DGKζ kinase activity inhibition assay; read-out: IC50
Procedure: Human DGKζ Kinase Activity Inhibition Assay. Human diacylglycerol kinase zeta (DGKζ) inhibitory activity of compounds of the present invention was quantified employing the human DGKζ kinase activity assay as described in the following paragraphs. In essence, the enzyme activity was measured by quantification of the adenosine-di-phosphate (ADP) generated as a co-product of the enzyme reaction via the “ADP-Glo™ Kinase Assay” kit from the company Promega. This detection system works as follows: In a first step the adenosine-tri-phosphate (ATP) not consumed in the kinase reaction is quantitatively converted to cyclic adenosine-mono-phosphate (cAMP) employing an adenylate cyclase (“ADP-Glo-reagent”), then the adenylate cyclase is stopped and the ADP generated in the kinase reaction is converted to ATP, which subsequently generates in a luciferase-based reaction a glow-luminescence signal (“Kinase Detection Reagent”). C-terminally FLAG-tagged, recombinant full-length human DGKζ (in house expressed in baculovirus infected insect cells, purified using anti-Flag pulldown and size exclusion chromatography) was used as enzyme. As an alternative, commercially available enzyme by Carnabio can be used. […] Subsequently, 22.55 volumes of a 510 mM solution of octyl-β-D-glucopyranoside (Sigma-Aldrich, Cat. #O8001-10G) in 50 mM MOPS buffer (pH 7.4) were added, and the mixture was sonicated in an ultrasonic bath for 20 s. […] Viewlux™ from Perkin-Elmer). The amount of emitted light was taken as a measure for the amount of ADP generated and thereby for the activity of the DGKζ.

Sequence of human DGKζ (Q13574 other isoform, or with tags, fused parts or gaps): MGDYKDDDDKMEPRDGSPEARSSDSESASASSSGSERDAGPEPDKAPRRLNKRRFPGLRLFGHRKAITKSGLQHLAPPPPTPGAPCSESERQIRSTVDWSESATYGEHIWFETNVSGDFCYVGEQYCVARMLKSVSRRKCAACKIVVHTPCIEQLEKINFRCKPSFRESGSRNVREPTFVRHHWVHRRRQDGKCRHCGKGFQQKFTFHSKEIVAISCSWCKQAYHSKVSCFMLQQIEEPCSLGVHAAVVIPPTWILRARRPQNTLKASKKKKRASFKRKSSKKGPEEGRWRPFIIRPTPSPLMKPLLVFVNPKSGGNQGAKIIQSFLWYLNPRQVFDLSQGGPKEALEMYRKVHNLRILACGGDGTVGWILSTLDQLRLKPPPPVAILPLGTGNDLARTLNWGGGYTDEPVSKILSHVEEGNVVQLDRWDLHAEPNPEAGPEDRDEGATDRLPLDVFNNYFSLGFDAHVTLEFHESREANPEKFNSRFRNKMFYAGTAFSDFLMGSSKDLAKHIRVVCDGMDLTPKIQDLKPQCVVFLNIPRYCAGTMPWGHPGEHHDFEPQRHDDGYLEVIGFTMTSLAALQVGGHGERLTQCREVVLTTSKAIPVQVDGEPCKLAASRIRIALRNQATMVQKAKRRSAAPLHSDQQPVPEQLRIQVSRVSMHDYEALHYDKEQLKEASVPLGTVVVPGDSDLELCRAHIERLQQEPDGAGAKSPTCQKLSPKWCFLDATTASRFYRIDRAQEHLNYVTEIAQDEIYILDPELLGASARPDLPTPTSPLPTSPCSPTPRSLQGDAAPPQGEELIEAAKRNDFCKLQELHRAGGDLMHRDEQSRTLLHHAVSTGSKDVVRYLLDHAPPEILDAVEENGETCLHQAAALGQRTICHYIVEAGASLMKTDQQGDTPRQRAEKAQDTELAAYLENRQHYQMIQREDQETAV

IC50 [nM] | SMILES
282 | CC(C(N)=O)N(c1ccc(F)cc1)c1nc(N)c(C(=O)c2ccc(OCCO)cc2)s1 (racemic) [Example 292, rac-2-(N-[4-amino-5-[4-(2-hydroxyethoxy)benzoyl]thiazol-2-yl]-4-fluoro-anilino)propanamide]
6350 | CC(C(N)=O)N(c1ccncc1)c1nc(N)c(C(=O)c2ccccc2)s1 (racemic) [Example 189, rac-2-[(4-amino-5-benzoyl-thiazol-2-yl)-(4-pyridyl)amino]propanamide]
3440 | CC(C(N)=O)N(c1ccc(F)c(F)c1)c1nc(N)c(C(=O)c2ccc(O)cc2)s1 (single isomer, unassigned; enantiomer 2) [Example 288, 2-(N-[4-amino-5-(4-hydroxybenzoyl)thiazol-2-yl]-3,4-difluoro-anilino)propanamide (enantiomer 2)]
1640 | Cc1ccc(N(c2nc(N)c(C(=O)c3ccccc3)s2)C(C)C(N)=O)cn1 (racemic) [Example 234, rac-2-[(4-amino-5-benzoyl-thiazol-2-yl)-(6-methyl-3-pyridyl)amino]propanamide]
356 | COc1ccc(N(c2nc(N)c(C(=O)c3ccccc3)s2)C(C)C(N)=O)cc1F (racemic) [Example 191, rac-2-(N-(4-amino-5-benzoyl-thiazol-2-yl)-3-fluoro-4-methoxy-anilino)propanamide]
88 | CC(C(N)=O)N(c1ccc(OC(F)F)c(F)c1)c1nc(N)c(C(=O)c2ccccc2)s1 (racemic) [Example 198, rac-2-[N-(4-amino-5-benzoyl-thiazol-2-yl)-4-(difluoromethoxy)-3-fluoro-anilinojpropanamide]
235 | CC(C(N)=O)N(c1ccc(OC(F)(F)F)c(Cl)c1)c1nc(N)c(C(=O)c2ccc(Cl)cc2)s1 (racemic) [Example 223, rac-2-[N-[4-amino-5-(4-chlorobenzoyl)thiazol-2-yl]-3-chloro-4-(trifluoromethoxy)anilino]propanamide]
10500 | CC(C(N)=O)N(c1ccc(OCc2ccccc2)cc1)c1nc(N)c(C(=O)c2ccc(OC(F)F)cc2)s1 (single isomer, unassigned) [Example 182.2, 2-(N-[4-amino-5-[4-(difluoromethoxy)benzoyl]thiazol-2-yl]-4-benzyloxy-anilino)propanamide]
662 | CC(C(N)=O)N(c1ccc(C(F)F)nc1)c1nc(N)c(C(=O)c2ccccc2)s1 (racemic) [Example 231, rac-2-[(4-amino-5-benzoyl-thiazol-2-yl)-[6-(difluoromethyl)-3-pyridyl]amino]propanamide]
2030 | CC(C(N)=O)N(c1nc(N)c(C(=O)c2ccccc2)s1)c1ccc(OC(F)F)cc1Cl (racemic) [Example 242, rac-2-[N-(4-amino-5-benzoyl-thiazol-2-yl)-2-chloro-4-(difluoromethoxy)anilino]propanamide]
35 | CC(C(N)=O)N(c1ccc(Br)cc1)c1nc(N)c(C(=O)c2ccccc2)s1 (racemic) [Example 193, rac-2-(N-(4-amino-5-benzoyl-thiazol-2-yl)-4-bromo-anilino)propanamide]
279 | CC(C(N)=O)N(c1ccc2c(c1)OC(F)(F)O2)c1nc(N)c(C(=O)c2ccncc2)s1 (racemic) [Example 215, rac-2-[[4-amino-5-(pyridine-4-carbonyl)thiazol-2-yl]-(2,2-difluoro-1,3-benzodioxol-5-yl)amino]propanamide]

The remaining lines, values behind:

SMILES | IC50 [nM]
CC(C(N)=O)N(c1ccc(F)c(F)c1)c1nc(N)c(C(=O)c2ccc(OCc3ccccc3)cc2)s1 (single isomer, unassigned) [Example 165.2, 2-(N-[4-amino-5-(4-benzyloxybenzoyl)thiazol-2-yl]-3,4-difluoro-anilino)propanamide] | 331
CC(C(N)=O)N(c1ccc(F)cc1)c1nc(N)c(C(=O)c2ccc(NC(=O)OCc3ccccc3)cc2)s1 (single isomer, unassigned) [Example 169.1, Benzyl N-[4-[4-amino-2-(N-(2-amino-1-methyl-2-oxo-ethyl)-4-fluoro-anilino)thiazole-5-carbonyl]phenyl]carbamate] | 3
CC(C(N)=O)N(c1ccc(F)c(F)c1)c1nc(N)c(C(=O)c2ccc(OC(F)F)nc2)s1 (single isomer, unassigned) [Example 163.2, 2-(N-[4-amino-5-[6-(difluoromethoxy)pyridine-3-carbonyl]thiazol-2-yl]-3,4-difluoro-anilino)propanamide] | 1090
CONC(=O)COc1ccc(C(=O)c2sc(N(c3ccc(F)cc3)C(C)C(N)=O)nc2N)cc1 (racemic) [Example 102, rac-2-(N-[4-amino-5-[4-[2-(methoxyamino)-2-oxo-ethoxy]benzoyl]thiazol-2-yl]-4-fluoro-anilino)propanamide] | 506
CC(C(N)=O)N(c1ccc(F)cc1)c1nc(N)c(C(=O)c2ccc(OCC(=O)N3CCCCCC3)cc2)s1 (racemic) [Example 123, rac-2-(N-[4-amino-5-[4-[2-(azepan-1-yl)-2-oxo-ethoxy]benzoyl]thiazol-2-yl]-4-fluoro-anilino)propanamide] | 100
CC(C(N)=O)N(c1ccc(F)cc1)c1nc(N)c(C(=O)c2ccc(C(F)F)nc2)s1 (racemic) [Example 159, rac-2-(N-[4-amino-5-[6-(difluoromethyl)pyridine-3-carbonyl]thiazol-2-yl]-4-fluoro-anilino)propanamide] | 214
CC(C(N)=O)N(c1ccc(F)c(F)c1)c1nc(N)c(C(=O)c2ccc(C(F)(F)F)nc2)s1 (single isomer, unassigned) [Example 53.1, 2-(N-[4-amino-5-[6-(trifluoromethyl)pyridine-3-carbonyl]thiazol-2-yl]-3,4-difluoro-anilino)propanamide] | 20.3
CC(C)NC(=O)C(C)(C)Oc1ccc(C(=O)c2sc(N(c3ccc(F)cc3)C(C)C(N)=O)nc2N)cc1 (racemic) [Example 154, rac-2-[4-[4-amino-2-(N-(2-amino-1-methyl-2-oxo-ethyl)-4-fluoro-anilino)thiazole-5-carbonyl]phenoxy]-N-isopropyl-2-methyl-propanamide] | 55.6
COc1ccc(C(=O)c2sc(N(c3ccc(Cl)c(F)c3)C(C)C(N)=O)nc2N)cc1 (racemic) [Example 59, rac-2-(N-[4-amino-5-(4-methoxybenzoyl)thiazol-2-yl]-4-chloro-3-fluoro-anilino)propanamide] | 10.3
CC(C(N)=O)N(c1ccc(F)cc1)c1nc(N)c(C(=O)c2ccc(OC(F)F)nc2)s1 (single isomer, unassigned) [Example 162.2, 2-(N-[4-amino-5-[6-(difluoromethoxy)pyridine-3-carbonyl]thiazol-2-yl]-4-fluoro-anilino)propanamide] | 6570
CC(C(N)=O)N(c1ccc(F)cc1)c1nc(N)c(C(=O)c2ccc(Cl)c(Cl)c2)s1 (racemic) [Example 26, rac-2-(N-[4-amino-5-(3,4-dichlorobenzoyl)thiazol-2-yl]-4-fluoro-anilino)propanamide] | 74.8
CC(=O)OCCOc1ccc(C(=O)c2sc(N(c3ccc(F)cc3)C(C)C(N)=O)nc2N)cc1 (racemic) [Example 168, rac-2-[4-[4-amino-2-(N-(2-amino-1-methyl-2-oxo-ethyl)-4-fluoro-anilino)thiazole-5-carbonyl]phenoxy]ethyl acetate] | 19
CC(C(N)=O)N(c1ccc(F)cc1)c1nc(N)c(C(=O)c2ccc(NC(=O)C3CC3)cc2)s1 (racemic) [Example 177, rac-4-[4-[4-amino-2-(N-(2-amino-1-methyl-2-oxo-ethyl)-4-fluoro-anilino)thiazole-5-carbonyl]phenyl]cyclopropanecarboxamide] | 40
CC(C(N)=O)N(c1ccc(Cl)cc1)c1nc(N)c(C(=O)c2ccccc2)s1 (racemic) [Example 34, rac-2-(N-(4-amino-5-benzoyl-thiazol-2-yl)-4-chloro-anilino)propanamide] | 34.4
CC(C(N)=O)N(c1ccc(F)c(Cl)c1)c1nc(N)c(C(=O)c2ccncc2)s1 (racemic) [Example 160, rac-2-(N-[4-amino-5-(pyridine-4-carbonyl)thiazol-2-yl]-3-chloro-4-fluoro-anilino)propanamide] | 187
CC(C(N)=O)N(c1ccc(Cl)c(F)c1)c1nc(N)c(C(=O)c2ccc(OCc3ccccc3)cc2)s1 (racemic) [Example 166, rac-2-(N-[4-amino-5-(4-benzyloxybenzoyl)thiazol-2-yl]-4-chloro-3-fluoro-anilino)propanamide] | 3
CC(C(N)=O)N(c1ccc(F)cc1)c1nc(N)c(C(=O)c2ccc(OCC(=O)Nc3cccc(C(N)=O)c3)cc2)s1 (racemic) [Example 107, rac-3-[[2-[4-[4-amino-2-(N-[2-amino-1-methyl-2-oxo-ethyl]-4-fluoro-anilino)thiazole-5-carbonyl]phenoxy]acetyl]amino]benzamide] | 77.3
CC(C(N)=O)N(c1ccc(F)c(F)c1)c1nc(N)c(C(=O)c2ccc(OCc3ccccc3)cc2)s1 (single isomer, unassigned) [Example 165.1, 2-(N-[4-amino-5-(4-benzyloxybenzoyl)thiazol-2-yl]-3,4-difluoro-anilino)propanamide] | 2
